Assay results published in patent publication US10722496B2, “2-iminobiotin for use in the treatment of brain cell injury” (Neurophyxia B.V., priority 2015, dated 2020).
“And” between values parts separate entries of the source, which are not always exact repeats. Equal values may be shown once.

Assay: Pharmacokinetics in adults after out of hospital cardiac arrest (Example 5B)
Assay type: in vivo, human
Design: Obs. AUCinf (based on weight): unit not given here
Method: Namely, a first cohort of eight patients received 2-IB in a dose of 0.055 mg/kg/dose every 4 hours iv, 6 times in total (part A; i.e., 0.33 mg/kg/day).
The eight adults that suffered an out of hospital cardiac arrest were treated with 2-IB as a 15-minute IV infusion every 4 hours for 6 administrations. Target temperature management was used to maintain body temperature of 36.0 (median).
Models were generated in order to determine the impact of dose adjustments and variability of AUC.
An exploratory covariate analysis was performed looking at body weight, age, eGFR, SeCre, and Core temperature.

[1] = Table 4, basic model, Max of 8 patients
[2] = Table 4, basic model, Mean of 8 patients
[3] = Table 4, basic model, Median of 8 patients
[4] = Table 4, basic model, Min of 8 patients
[5] = Table 4, basic model, OHCA patients, 0.055 mg/kg/dose iv every 4 hours x6, individual patient (ID 1-8), 0.055 mg/kg
[6] = Table 5, covariate model with Crea0, Max of 8 patients
[7] = Table 5, covariate model with Crea0, Mean of 8 patients
[8] = Table 5, covariate model with Crea0, Median of 8 patients
[9] = Table 5, covariate model with Crea0, Min of 8 patients
[10] = Table 5, covariate model with Crea0, OHCA patients, 0.055 mg/kg/dose iv every 4 hours x6, individual patient (ID 1-8), 0.055 mg/kg
[11] = Table 9, eGFR0 (eGFR at baseline) model, OHCA patients, 0.055 mg/kg/dose iv every 4 hours x6, individual patient (ID 1-8), 0.055 mg/kg
[12] = Table 9, eGFR0 model, Max of 8 patients
[13] = Table 9, eGFR0 model, Mean of 8 patients
[14] = Table 9, eGFR0 model, Median of 8 patients
[15] = Table 9, eGFR0 model, Min of 8 patients
[16] = exploratory covariate analysis, 8 OHCA patients

## N=C1N[C@H]2[C@H](CS[C@H]2CCCCC(=O)O)N1 [2-IB, 2-iminobiotin]
[1]
  AUC cumul.: 5613 ng·h/mL
  AUCinf: 1242 ng·h/mL
  CL: 22.3 L/h
  V: 33.6 L
  VSS: 43.5 L
  thalf: 6.3 h
[2]
  AUC cumul.: 3238 ng·h/mL
  AUCinf: 625 ng·h/mL
  CL: 11.7 L/h
  V: 14.9 L
  VSS: 24.9 L
  thalf: 2.5 h
[3]
  AUC cumul.: 2777 ng·h/mL
  AUCinf: 478 ng·h/mL
  CL: 9.5 L/h
  V: 12.7 L
  VSS: 22.7 L
  thalf: 1.6 h
[4]
  AUC cumul.: 1236 ng·h/mL
  AUCinf: 209 ng·h/mL
  CL: 4.9 L/h
  V: 5.0 L
  VSS: 14.9 L
  thalf: 1.0 h
[5]
  AUC cumul.: 5613 ng·h/mL and 4680 ng·h/mL and 3521 ng·h/mL and 5386 ng·h/mL and 1858 ng·h/mL and 2032 ng·h/mL and 1236 ng·h/mL and 1577 ng·h/mL
  AUCinf: 1152 ng·h/mL and 860 ng·h/mL and 612 ng·h/mL and 1242 ng·h/mL and 315 ng·h/mL and 343 ng·h/mL and 209 ng·h/mL and 265 ng·h/mL
  CL: 6.4 L/h and 5.8 L/h and 7.6 L/h and 4.9 L/h and 11.4 L/h and 18.3 L/h and 22.3 L/h and 16.7 L/h
  V: 24.3 L and 11.3 L and 7.3 L and 33.6 L and 5.0 L (2×) and 14.1 L and 19.0 L
  VSS: 34.3 L and 21.3 L and 17.3 L and 43.5 L and 15.0 L and 24.1 L and 28.9 L and 14.9 L
  thalf: 3.9 h and 2.8 h and 1.9 h and 6.3 h and 1.3 h and 1.2 h (2×) and 1.0 h
[6]
  AUC cumul.: 5934 ng·h/mL
  AUCinf: 1235 ng·h/mL
  CL: 17.9 L/h
  V: 34.1 L
  VSS: 43.4 L
  thalf: 5.4 h
[7]
  AUC cumul.: 3226 ng·h/mL
  AUCinf: 614 ng·h/mL
  CL: 11.0 L/h
  V: 15.4 L
  VSS: 24.7 L
  thalf: 2.3 h
[8]
  AUC cumul.: 2405 ng·h/mL
  AUCinf: 408 ng·h/mL
  CL: 10.2 L/h
  V: 13.2 L
  VSS: 22.5 L
  thalf: 1.5 h
[9]
  AUC cumul.: 1615 ng·h/mL
  AUCinf: 271 ng·h/mL
  CL: 5.6 L/h
  V: 4.7 L
  VSS: 14.0 L
  thalf: 1.0 h
[10]
  AUC cumul.: 5934 ng·h/mL and 4803 ng·h/mL and 2726 ng·h/mL and 4886 ng·h/mL and 2063 ng·h/mL and 2085 ng·h/mL and 1694 ng·h/mL and 1615 ng·h/mL
  AUCinf: 1235 ng·h/mL and 884 ng·h/mL and 464 ng·h/mL and 1063 ng·h/mL and 349 ng·h/mL and 352 ng·h/mL and 291 ng·h/mL and 271 ng·h/mL
  CL: 6.0 L/h and 5.6 L/h and 10.0 L/h and 5.7 L/h and 10.3 L/h and 17.9 L/h and 16.0 L/h and 16.3 L/h
  V: 24.5 L and 11.8 L and 7.2 L and 34.1 L and 4.7 L and 14.5 L and 21.3 L and 5.1 L
  VSS: 33.8 L and 21.1 L and 16.5 L and 43.4 L and 14.0 L and 23.8 L and 30.6 L and 14.4 L
  thalf: 4.1 h and 2.8 h and 1.4 h and 5.4 h and 1.3 h and 1.2 h and 1.5 h and 1.0 h
Table 8, covariate model with Crea0, individual patient (ID 1-8)
  Obs. AUCinf (based on weight): 291 and 271 and 1235 and 884 and 464 and 1063 and 349 and 352
[11]
  AUC: 5905 ng·h/mL and 4813 ng·h/mL and 2712 ng·h/mL and 4896 ng·h/mL and 2060 ng·h/mL and 2061 ng·h/mL and 1705 ng·h/mL and 1636 ng·h/mL
  AUCinf: 1227 ng·h/mL and 886 ng·h/mL and 462 ng·h/mL and 1067 ng·h/mL and 349 ng·h/mL and 348 ng·h/mL and 292 ng·h/mL and 274 ng·h/mL
  CL: 6.0 L/h and 5.6 L/h and 10.1 L/h and 5.7 L/h and 10.3 L/h and 18.1 L/h and 15.9 L/h and 16.1 L/h
  V: 24.5 L and 11.8 L and 7.3 L and 34.2 L and 4.7 L and 14.8 L and 21.1 L and 5.0 L
  VSS: 33.8 L and 21.1 L and 16.5 L and 43.5 L and 14.0 L and 24.1 L and 30.4 L and 14.3 L
  thalf: 4.1 h and 2.8 h and 1.4 h and 5.4 h and 1.3 h and 1.2 h and 1.5 h and 1.0 h
[12]
  AUC: 5905 ng·h/mL
  AUCinf: 1227 ng·h/mL
  CL: 18.1 L/h
  V: 34.2 L
  VSS: 43.5 L
  thalf: 5.4 h
[13]
  AUC: 3224 ng·h/mL
  AUCinf: 613 ng·h/mL
  CL: 11.0 L/h
  V: 15.4 L
  VSS: 24.7 L
  thalf: 2.3 h
[14]
  AUC: 2387 ng·h/mL
  AUCinf: 405 ng·h/mL
  CL: 10.2 L/h
  V: 13.3 L
  VSS: 22.6 L
  thalf: 1.5 h
[15]
  AUC: 1636 ng·h/mL
  AUCinf: 274 ng·h/mL
  CL: 5.6 L/h
  V: 4.7 L
  VSS: 14.0 L
  thalf: 1.0 h
Table 10, covariate model with eGFR, individual patient (ID 1-8)
  Obs. AUCinf (based on weight): 292 and 274 and 1227 and 886 and 462 and 1067 and 349 and 348
Table 10, Max of 8 patients
  Obs. AUCinf (based on weight): 1227
Table 10, Mean of 8 patients
  Obs. AUCinf (based on weight): 613
Table 10, Median of 8 patients
  Obs. AUCinf (based on weight): 405
Table 10, Min of 8 patients
  Obs. AUCinf (based on weight): 274
[16]
  influence of body weight on clearance: not influenced by body weight
  influence of body weight on volume: influenced by body weight
Renal function as Serum Creatinine or eGFR before treatment, exploratory covariate analysis
  influence of renal function on clearance: appears to be influenced be renal function
